According to patent publication US20120122860A1, “SOLID FORMS OF SULFONAMIDES AND AMINO ACIDS” (Plexxikon, Inc., priority 2009, published 2012):

Key:
[1] = biological target: B-Raf (Homo sapiens, UniProt P15056); assay: Kinase activity assay, B-Raf; type: biochemical; conditions: read-out: activity toward kinase B-Raf, IC50
[2] = biological target: T1, A-Raf (Homo sapiens, UniProt P10398); assay: Kinase activity assay, A-Raf
T1 sequence (P10398 1-606): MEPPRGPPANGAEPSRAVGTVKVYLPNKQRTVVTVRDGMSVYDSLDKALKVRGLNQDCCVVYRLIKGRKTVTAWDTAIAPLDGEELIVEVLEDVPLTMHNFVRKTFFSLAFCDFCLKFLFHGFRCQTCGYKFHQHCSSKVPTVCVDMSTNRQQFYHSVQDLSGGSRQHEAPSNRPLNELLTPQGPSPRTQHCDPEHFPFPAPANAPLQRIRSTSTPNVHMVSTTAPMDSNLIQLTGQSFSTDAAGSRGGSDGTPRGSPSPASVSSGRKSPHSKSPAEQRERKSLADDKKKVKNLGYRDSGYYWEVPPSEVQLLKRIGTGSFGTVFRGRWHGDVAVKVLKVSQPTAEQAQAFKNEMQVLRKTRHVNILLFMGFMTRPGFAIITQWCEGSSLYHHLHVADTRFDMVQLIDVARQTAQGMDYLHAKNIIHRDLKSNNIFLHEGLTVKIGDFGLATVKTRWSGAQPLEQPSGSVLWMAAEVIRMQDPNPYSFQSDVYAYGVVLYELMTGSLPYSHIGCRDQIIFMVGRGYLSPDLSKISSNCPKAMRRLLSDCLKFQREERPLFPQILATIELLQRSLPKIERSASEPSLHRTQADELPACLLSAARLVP

[3] = biological target: C-Raf (Homo sapiens, UniProt P04049); assay: Kinase activity assay, C-Raf
[4] = biological target: Fms (Homo sapiens, UniProt P07333); assay: Kinase activity assay, Fms
[5] = biological target: Kdr (Homo sapiens, UniProt P35968); assay: Kinase activity assay, Kdr
[6] = biological target: Src (Homo sapiens, UniProt P12931); assay: Kinase activity assay, Src
[7] = biological target: MAP4K4 (Homo sapiens, UniProt O95819); assay: Kinase activity assay, MAP4K4
[8] = biological target: Kit (Homo sapiens, UniProt P10721); assay: Kinase activity assay, Kit
[9] = biological target: B-Raf V600E (Homo sapiens, UniProt P15056, V600E); assay: Kinase activity assay, B-Raf V600E; type: biochemical; conditions: read-out: activity toward kinase B-Raf V600E, IC50

Measured: IC50

C-Raf, sequence (P04049 whole entry): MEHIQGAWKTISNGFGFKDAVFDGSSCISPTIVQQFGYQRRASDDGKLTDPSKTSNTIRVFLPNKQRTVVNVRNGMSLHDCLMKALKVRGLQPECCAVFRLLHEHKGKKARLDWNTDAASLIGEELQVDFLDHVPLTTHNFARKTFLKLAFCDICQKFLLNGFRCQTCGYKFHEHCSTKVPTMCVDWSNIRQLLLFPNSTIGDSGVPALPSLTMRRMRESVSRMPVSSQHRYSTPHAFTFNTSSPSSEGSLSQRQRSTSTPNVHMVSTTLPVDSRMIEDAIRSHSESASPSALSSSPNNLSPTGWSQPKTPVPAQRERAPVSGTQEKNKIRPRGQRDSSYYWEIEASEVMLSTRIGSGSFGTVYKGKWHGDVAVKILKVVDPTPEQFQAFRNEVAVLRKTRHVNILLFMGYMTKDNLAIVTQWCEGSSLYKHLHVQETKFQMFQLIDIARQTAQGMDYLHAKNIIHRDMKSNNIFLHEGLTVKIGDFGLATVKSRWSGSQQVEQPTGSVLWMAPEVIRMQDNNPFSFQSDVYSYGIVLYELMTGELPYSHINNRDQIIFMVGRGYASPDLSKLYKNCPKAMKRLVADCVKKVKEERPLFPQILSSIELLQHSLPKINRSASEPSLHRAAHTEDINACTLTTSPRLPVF
Kdr, sequence (P35968 20-1356): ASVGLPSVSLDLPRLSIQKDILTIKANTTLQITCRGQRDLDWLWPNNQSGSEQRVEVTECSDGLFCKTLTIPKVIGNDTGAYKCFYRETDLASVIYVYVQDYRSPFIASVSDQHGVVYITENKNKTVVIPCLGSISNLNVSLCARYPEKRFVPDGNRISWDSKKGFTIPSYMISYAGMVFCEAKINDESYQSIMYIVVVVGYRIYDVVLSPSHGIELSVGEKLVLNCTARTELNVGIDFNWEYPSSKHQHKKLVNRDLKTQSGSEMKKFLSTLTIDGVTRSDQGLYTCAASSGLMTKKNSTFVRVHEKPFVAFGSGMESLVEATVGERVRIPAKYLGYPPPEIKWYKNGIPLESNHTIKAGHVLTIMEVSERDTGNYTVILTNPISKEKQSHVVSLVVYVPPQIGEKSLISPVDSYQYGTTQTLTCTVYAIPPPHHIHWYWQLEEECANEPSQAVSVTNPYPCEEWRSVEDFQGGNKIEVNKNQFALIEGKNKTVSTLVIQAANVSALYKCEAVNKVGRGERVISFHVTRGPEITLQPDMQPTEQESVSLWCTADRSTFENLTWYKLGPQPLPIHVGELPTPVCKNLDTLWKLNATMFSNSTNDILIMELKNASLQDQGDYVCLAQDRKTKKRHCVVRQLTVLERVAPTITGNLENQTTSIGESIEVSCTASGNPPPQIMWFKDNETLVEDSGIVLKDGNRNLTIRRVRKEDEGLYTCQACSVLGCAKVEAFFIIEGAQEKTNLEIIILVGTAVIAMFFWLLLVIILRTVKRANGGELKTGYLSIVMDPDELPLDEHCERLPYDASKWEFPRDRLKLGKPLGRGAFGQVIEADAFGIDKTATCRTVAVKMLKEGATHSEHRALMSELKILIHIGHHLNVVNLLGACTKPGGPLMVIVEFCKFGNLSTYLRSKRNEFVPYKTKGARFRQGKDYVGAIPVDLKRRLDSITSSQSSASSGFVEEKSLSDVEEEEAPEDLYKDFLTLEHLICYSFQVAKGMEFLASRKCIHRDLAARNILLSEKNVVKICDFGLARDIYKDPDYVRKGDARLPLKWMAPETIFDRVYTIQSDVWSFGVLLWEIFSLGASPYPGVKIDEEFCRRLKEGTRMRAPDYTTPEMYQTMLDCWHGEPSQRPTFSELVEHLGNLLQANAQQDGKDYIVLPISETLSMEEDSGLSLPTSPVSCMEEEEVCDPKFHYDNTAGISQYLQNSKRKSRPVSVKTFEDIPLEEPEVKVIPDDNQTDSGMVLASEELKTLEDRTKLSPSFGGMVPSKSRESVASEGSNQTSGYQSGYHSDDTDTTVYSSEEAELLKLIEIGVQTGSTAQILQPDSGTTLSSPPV
Src, sequence (P12931 whole entry): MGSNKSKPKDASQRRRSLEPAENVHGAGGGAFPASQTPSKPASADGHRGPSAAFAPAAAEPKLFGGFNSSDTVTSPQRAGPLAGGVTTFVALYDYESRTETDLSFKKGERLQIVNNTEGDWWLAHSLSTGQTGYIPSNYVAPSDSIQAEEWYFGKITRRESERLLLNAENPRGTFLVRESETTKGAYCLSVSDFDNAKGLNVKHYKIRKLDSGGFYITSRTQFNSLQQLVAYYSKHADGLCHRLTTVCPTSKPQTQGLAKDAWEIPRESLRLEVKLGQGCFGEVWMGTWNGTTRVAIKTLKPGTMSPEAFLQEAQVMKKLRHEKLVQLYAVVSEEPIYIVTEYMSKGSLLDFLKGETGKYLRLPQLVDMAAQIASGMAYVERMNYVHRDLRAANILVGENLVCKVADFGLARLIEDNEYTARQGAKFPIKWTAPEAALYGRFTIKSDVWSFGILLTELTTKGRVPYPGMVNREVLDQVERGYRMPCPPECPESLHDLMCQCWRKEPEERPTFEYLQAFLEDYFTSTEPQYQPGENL
Kit, sequence (P10721 26-976): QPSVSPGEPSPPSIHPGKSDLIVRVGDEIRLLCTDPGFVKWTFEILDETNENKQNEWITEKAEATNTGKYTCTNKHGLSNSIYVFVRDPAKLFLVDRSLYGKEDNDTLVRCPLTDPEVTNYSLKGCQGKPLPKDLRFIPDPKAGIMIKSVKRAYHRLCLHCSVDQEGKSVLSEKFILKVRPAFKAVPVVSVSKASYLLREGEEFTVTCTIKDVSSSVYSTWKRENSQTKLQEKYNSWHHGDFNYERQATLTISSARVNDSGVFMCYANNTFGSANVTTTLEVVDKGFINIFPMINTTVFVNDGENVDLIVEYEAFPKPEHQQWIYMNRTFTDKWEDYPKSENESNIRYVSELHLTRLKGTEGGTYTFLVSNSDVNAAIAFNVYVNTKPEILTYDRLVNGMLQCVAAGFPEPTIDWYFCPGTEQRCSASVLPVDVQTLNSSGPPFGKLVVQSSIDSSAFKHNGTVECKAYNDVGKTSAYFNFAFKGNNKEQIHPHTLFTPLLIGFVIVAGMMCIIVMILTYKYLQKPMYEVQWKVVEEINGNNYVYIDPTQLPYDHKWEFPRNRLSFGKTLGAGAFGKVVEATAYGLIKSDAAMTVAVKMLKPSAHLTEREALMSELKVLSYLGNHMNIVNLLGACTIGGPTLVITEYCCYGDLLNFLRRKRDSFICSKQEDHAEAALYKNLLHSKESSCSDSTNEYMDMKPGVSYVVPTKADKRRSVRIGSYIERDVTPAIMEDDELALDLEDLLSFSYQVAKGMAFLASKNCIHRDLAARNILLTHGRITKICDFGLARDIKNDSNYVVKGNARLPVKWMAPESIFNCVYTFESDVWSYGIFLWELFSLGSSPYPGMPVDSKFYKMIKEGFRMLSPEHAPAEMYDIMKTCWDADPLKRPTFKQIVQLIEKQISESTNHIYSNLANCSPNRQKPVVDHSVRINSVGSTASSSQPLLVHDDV
Fms, sequence (P07333 20-972): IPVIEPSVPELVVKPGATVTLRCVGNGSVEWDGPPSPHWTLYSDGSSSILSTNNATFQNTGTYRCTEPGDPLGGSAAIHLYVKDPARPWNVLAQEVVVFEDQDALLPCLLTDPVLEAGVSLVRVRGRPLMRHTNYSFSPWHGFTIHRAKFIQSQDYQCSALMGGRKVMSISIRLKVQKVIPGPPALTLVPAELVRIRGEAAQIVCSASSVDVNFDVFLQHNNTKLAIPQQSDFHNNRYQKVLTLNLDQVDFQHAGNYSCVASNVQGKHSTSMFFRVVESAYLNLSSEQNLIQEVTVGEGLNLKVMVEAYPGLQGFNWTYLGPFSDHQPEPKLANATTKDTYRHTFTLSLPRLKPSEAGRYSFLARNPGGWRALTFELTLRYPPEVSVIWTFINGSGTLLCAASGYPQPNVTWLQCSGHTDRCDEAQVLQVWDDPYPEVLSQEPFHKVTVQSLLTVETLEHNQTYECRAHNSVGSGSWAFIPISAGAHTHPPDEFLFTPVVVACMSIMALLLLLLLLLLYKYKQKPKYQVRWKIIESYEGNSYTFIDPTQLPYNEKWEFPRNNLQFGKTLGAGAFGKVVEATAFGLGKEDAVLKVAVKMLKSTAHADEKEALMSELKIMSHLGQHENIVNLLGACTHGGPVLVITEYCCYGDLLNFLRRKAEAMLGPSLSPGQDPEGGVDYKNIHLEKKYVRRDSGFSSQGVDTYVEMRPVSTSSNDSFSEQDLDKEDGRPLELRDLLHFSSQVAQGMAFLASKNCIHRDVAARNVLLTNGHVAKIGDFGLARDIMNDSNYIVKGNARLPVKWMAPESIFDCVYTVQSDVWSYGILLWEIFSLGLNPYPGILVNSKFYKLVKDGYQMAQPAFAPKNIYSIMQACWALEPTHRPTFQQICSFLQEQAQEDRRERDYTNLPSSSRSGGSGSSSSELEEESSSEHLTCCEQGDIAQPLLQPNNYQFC

O=C(c1cc(NS(=O)(=O)c2ccc(C(F)(F)F)cc2)ccc1F)c1c[nH]c2ncccc12 [P-2119, N-[4-Fluoro-3-(1H-pyrrolo[2,3-b]pyridine-3-carbonyl)-phenyl]-4-trifluoromethyl-benzenesulfonamide]
≤ 10 µM: [1] | [2] | [3]

Cc1cnc2[nH]cc(C(=O)c3cc(NS(=O)(=O)c4cccnc4)ccc3F)c2c1 [P-2137, Pyridine-3-sulfonic acid [4-fluoro-3-(5-methyl-1H-pyrrolo[2,3-b]pyridine-3-carbonyl)-phenyl]-amide]
≤ 10 µM: [4] | [5] | [6] | [7]

O=C(O)CCc1cccc(-c2cnc3[nH]cc(C(=O)c4cccc(NS(=O)(=O)c5cccnc5)c4)c3c2)c1 [P-2148, 3-(3-{3-[3-(Pyridine-3-sulfonylamino)-benzoyl]-1H-pyrrolo[2,3-b]pyridin-5-yl}-phenyl)-propionic acid]
not listed: [2] | [3] | [9]
≤ 10 µM: all other assays above

CCCS(=O)(=O)Nc1ccc(F)c(C(=O)c2c[nH]c3ncc(-c4cnc(C)nc4)cc23)c1F [P-2211, Propane-1-sulfonic acid {2,4-difluoro-3-[5-(2-methyl-pyrimidin-5-yl)-1H-pyrrolo[2,3-b]pyridine-3-carbonyl]-phenyl}-amide]
not listed: [2] | [8]
≤ 10 µM: all other assays above

CCCS(=O)(=O)Nc1ccc(F)c(C(=O)c2c[nH]c3ncc(-c4ccc(CCCOC)nc4)cc23)c1F [P-2226, Propane-1-sulfonic acid (2,4-difluoro-3-{5-[6-(3-methoxy-propyl)-pyridin-3-yl]-1H-pyrrolo[2,3-b]pyridine-3-carbonyl}-phenyl)-amide]
not listed: [2]
≤ 10 µM: all other assays above

CCCS(=O)(=O)Nc1ccc(F)c(C(=O)c2c[nH]c3ncc(-c4cccc(S(C)(=O)=O)c4)cc23)c1F [P-2228, Propane-1-sulfonic acid {2,4-difluoro-3-[5-(3-methanesulfonyl-phenyl)-1H-pyrrolo[2,3-b]pyridine-3-carbonyl]-phenyl}-amide]
not listed: [2]
≤ 10 µM: all other assays above

CCCS(=O)(=O)Nc1ccc(F)c(C(=O)c2c[nH]c3ncc(-c4nn[nH]n4)cc23)c1F [P-2242, Propane-1-sulfonic acid {2,4-difluoro-3-[5-(2H-tetrazol-5-yl)-1H-pyrrolo[2,3-b]pyridine-3-carbonyl]-phenyl}-amide]
≤ 10 µM: [4] | [5] | [8] | [6] | [7]

CCCCS(=O)(=O)Nc1ccc(F)c(C(=O)c2c[nH]c3ncc(-c4ccc(Cl)cc4)cc23)c1F [P-2300, Butane-1-sulfonic acid {3-[5-(4-chloro-phenyl)-1H-pyrrolo[2,3-b]pyridine-3-carbonyl]-2,4-difluoro-phenyl}-amide]
≤ 10 µM: [4] | [5] | [8] | [6] | [7]

O=C(c1c(F)ccc(NS(=O)(=O)CCC(F)(F)F)c1F)c1c[nH]c2ncc(Cl)cc12 [P-2324, 3,3,3-Trifluoro-propane-1-sulfonic acid [3-(5-chloro-1H-pyrrolo[2,3-b]pyridine-3-carbonyl)-2,4-difluoro-phenyl]-amide]
not listed: [2]
≤ 10 µM: all other assays above

N#Cc1cnc2[nH]cc(C(=O)c3c(F)ccc(NS(=O)(=O)CCC(F)(F)F)c3F)c2c1 [P-2331, 3,3,3-Trifluoro-propane-1-sulfonic acid [3-(5-cyano-1H-pyrrolo[2,3-b]pyridine-3-carbonyl)-2,4-difluoro-phenyl]-amide]
not listed: [2]
≤ 10 µM: all other assays above

CCN(CC)S(=O)(=O)Nc1ccc(F)c(C(=O)c2c[nH]c3ncc(C#N)cc23)c1F [P-2385, N,N-diethylamino-sulfonic acid [3-(5-cyano-1H-pyrrolo[2,3-b]pyridine-3-carbonyl)-2,4-difluoro-phenyl]-amide]
≤ 10 µM: [9] | [5] | [2]

CCN(CC)S(=O)(=O)Nc1ccc(F)c(C(=O)c2c[nH]c3ncc(C)cc23)c1F [P-2386, N,N-diethylamino-sulfonic acid [2,4-difluoro-3-(5-methyl-1H-pyrrolo[2,3-b]pyridine-3-carbonyl)-phenyl]-amide]
≤ 10 µM: [9] | [5] | [2]

CCN(CC)S(=O)(=O)Nc1ccc(F)c(C(=O)c2c[nH]c3nccc(Cl)c23)c1F [P-2387, N,N-diethylamino-sulfonic acid [3-(4-chloro-1H-pyrrolo[2,3-b]pyridine-3-carbonyl)-2,4-difluoro-phenyl]-amide]
≤ 10 µM: [9] | [5] | [2]

CCN(CC)S(=O)(=O)Nc1ccc(F)c(C(=O)c2c[nH]c3nccc(C#N)c23)c1F [P-2388, N,N-diethylamino-sulfonic acid [3-(4-cyano-1H-pyrrolo[2,3-b]pyridine-3-carbonyl)-2,4-difluoro-phenyl]-amide]
≤ 10 µM: [9] | [2]

O=C(O)CCc1cccc(-c2cnc3[nH]cc(C(=O)c4cccc(NS(=O)(=O)C5CCCCC5)c4)c3c2)c1 [P-2465, 3-{3-[3-(3-Cyclohexanesulfonylamino-benzoyl)-1H-pyrrolo[2,3-b]pyridin-5-yl]-phenyl}-propionic acid]
not listed: [2] | [3]
≤ 10 µM: all other assays above
